For test [1], the system named is U-251. Nature of the test: Antiproliferative activity against human U-251 cells after 72 hrs by MTT assay. It is filed as functional, cell-based. Particulars: U-251, 72 h. In general terms: Tetrazolium assays rely on reduction of a dye to a coloured formazan, in cell work by metabolically active cells.
In test [2] the test system is HL-60. Nature of the test: Antiproliferative activity against human HL-60 cells after 72 hrs by MTT assay. It is filed as functional, cell-based. As to conditions: HL-60, 72 h.
In test [3] the test system is SW480. Nature of the test: Antiproliferative activity against human SW480 cells after 72 hrs by MTT assay. It is filed as functional, cell-based. As to conditions: SW480, 72 h.
For test [4], the system named is A549. The experiment in a line: Antiproliferative activity against human A549 cells after 72 hrs by MTT assay. It is filed as functional, cell-based. Particulars: A549, 72 h.
The subject of test [5] is HepG2. The experiment in a line: Antiproliferative activity against human HepG2 cells after 72 hrs by MTT assay. It is filed as functional, cell-based. Particulars: HepG2, 72 h.
The subject of test [6] is HCT-116. The experiment in a line: Antiproliferative activity against human HCT-116 cells after 72 hrs by MTT assay. As to conditions: HCT-116, 72 h. It is filed as functional, cell-based.
The subject of test [7] is SK-HEP1. Nature of the test: Antiproliferative activity against human SK-HEP1 cells after 72 hrs by MTT assay. It is filed as functional, cell-based. Particulars: SK-HEP1, 72 h.
In test [8] the test system is L02. Nature of the test: Antiproliferative activity against human L02 cells after 72 hrs by MTT assay. As to conditions: L02, 72 h. It is filed as functional, cell-based.
For test [9], the system named is RKO. Nature of the test: Antiproliferative activity against human RKO cells after 72 hrs by MTT assay. It is filed as functional, cell-based.
In test [10] the test system is HT-29. Nature of the test: Antiproliferative activity against human HT-29 cells after 72 hrs by MTT assay. It is filed as functional, cell-based. Particulars: HT-29, 72 h.
Test [11] concerns HGC-27. The experiment in a line: Antiproliferative activity against human HGC-27 cells after 72 hrs by MTT assay. It is filed as functional, cell-based. Particulars: HGC-27, 72 h.
In test [12] the test system is Huh-7. The experiment in a line: Antiproliferative activity against human Huh-7 cells after 72 hrs by MTT assay. It is filed as functional, cell-based. As to conditions: Huh-7, 72 h.
Test [13] relates to MDA-MB-231. Nature of the test: Antiproliferative activity against human MDA-MB-231 cells after 72 hrs by MTT assay. It is filed as functional, cell-based. As to conditions: MDA-MB-231, 72 h.
Test [14] deals with HCCLM9. Nature of the test: Antiproliferative activity against human HCCLM9 cells after 72 hrs by MTT assay. It is filed as functional, cell-based. As to conditions: HCCLM9, 72 h.
Test [15] deals with DNA topoisomerase 1 (Homo sapiens) (UniProt P11387). Nature of the test: Inhibition of DNA topoisomerase 1 (unknown origin) at 25 to 50 uM measured by agar gel electrophoresis relative to control. As to conditions: dose 25-50 µM.
DNA topoisomerase 1 (Homo sapiens), sequence (P11387 whole entry): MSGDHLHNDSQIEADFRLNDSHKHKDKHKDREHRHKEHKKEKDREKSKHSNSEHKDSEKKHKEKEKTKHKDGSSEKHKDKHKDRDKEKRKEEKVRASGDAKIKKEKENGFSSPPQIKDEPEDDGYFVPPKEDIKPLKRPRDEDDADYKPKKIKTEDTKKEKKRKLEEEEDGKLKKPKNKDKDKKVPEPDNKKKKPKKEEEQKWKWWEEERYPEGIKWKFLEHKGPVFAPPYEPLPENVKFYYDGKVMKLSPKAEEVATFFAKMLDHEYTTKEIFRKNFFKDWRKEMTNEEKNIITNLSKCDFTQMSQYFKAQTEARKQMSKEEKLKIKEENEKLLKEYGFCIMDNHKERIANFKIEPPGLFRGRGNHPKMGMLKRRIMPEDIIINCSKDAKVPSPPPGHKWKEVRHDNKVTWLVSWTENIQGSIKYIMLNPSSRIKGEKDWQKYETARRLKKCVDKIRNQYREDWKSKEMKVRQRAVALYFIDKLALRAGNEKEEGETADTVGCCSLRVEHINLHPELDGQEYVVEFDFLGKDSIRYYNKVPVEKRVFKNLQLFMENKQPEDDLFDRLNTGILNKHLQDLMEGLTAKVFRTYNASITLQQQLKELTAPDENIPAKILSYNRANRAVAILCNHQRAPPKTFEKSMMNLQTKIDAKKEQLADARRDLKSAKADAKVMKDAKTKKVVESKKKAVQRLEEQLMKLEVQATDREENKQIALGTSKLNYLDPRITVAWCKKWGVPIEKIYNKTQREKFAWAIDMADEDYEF
The test system of test [16] is SGC-7901. The experiment in a line: Antiproliferative activity against human SGC-7901 cells after 72 hrs by MTT assay. It is filed as functional, cell-based. Particulars: SGC-7901, 72 h.

The source made the active and inactive calls. The rule behind the calls is not given here.

With `CN(C)Cc1cc2c(cc1-c1cc3ccc4c(c3cn1)OCO4)OCO2`, the IC50 in test [1] was 24.6 µM; in [2], 115 µM; in test [3], 8.54 µM; in [4] it was 17.4 µM; in [5], 20.8 µM; in [6], 67.2 µM. Besides, the IC50 is 17.2 µM in test [7]; greater than 150 µM in test [8]; 28.7 µM in test [9]; 36 µM in test [10]; 19.1 µM in test [11]; 11.2 µM in test [12]. In addition, the IC50 in test [13] was 12.8 µM; in test [14], 8.83 µM; in test [16], 48.2 µM. Besides, the inhibition result in [15] is “Active”.

The IC50 is the concentration that gives 50% inhibition. Low values mean greater potency, high ones weaker potency.

For the origin of these results see ChEMBL document CHEMBL5154652, “Design, synthesis and anti-hepatocellular carcinoma activity of 3-arylisoquinoline alkaloids” (Eur J Med Chem, 2022).
